Experimental data taken from US10227324B2 (Shanghai Haiyan Pharmaceutical Technology Co., Ltd., priority 2014, dated 2019).

Each compound was assayed on NIH3T3 cells (assay: Cytotoxicity by MTT assay, NIH3T3). Details: Mus musculus, NIH3T3, 72 h, cytotoxicity class, read-out: NIH3T3 cell (IC50/nM).
Type: cell-based

Row | Compound | IC50
1 | CS(=O)(=O)C1(c2cc(-c3cnc(N)cc3C(F)(F)F)nc(N3CCOCC3)n2)CCCC1 [Compound S-10] | 1000 to 3000 nM
2 | CC(C)S(=O)(=O)C1(c2cc(-c3cnc(N)cc3C(F)(F)F)nc(N3CCOCC3)n2)CCC1 [Compound S-19] | 1000 to 3000 nM
3 | Nc1cc(C(F)(F)F)c(-c2cc(C3(S(=O)(=O)c4ccccc4)CCC3)nc(N3CCOCC3)n2)cn1 [Compound S-20] | 1000 to 3000 nM
